Results taken from PubChem BioAssay (NCI).
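Values below derive from 48-hour exposures of cells grown in 96-well plates, with endpoints linearly interpolated between the two concentrations bracketing the appropriate inhibition level. TGI: concentration producing complete growth inhibition.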

What was measured:
Test in all cases: NCI tumour cell line growth inhibition, 48 h
A498 renal = test system: A498 renal
BT-549 breast = test system: BT-549 breast
COLO 205 colon = test system: COLO 205 colon
HCT-15 colon = test system: HCT-15 colon
HOP-62 NSCLC = test system: HOP-62 NSCLC
HOP-92 NSCLC = test system: HOP-92 NSCLC
HS 578T breast = test system: HS 578T breast
MDA-MB-231 breast = test system: MDA-MB-231 breast
NCI-H23 lung = test system: NCI-H23 lung
NCI/ADR-RES ovarian = test system: NCI/ADR-RES ovarian
PC-3 prostate = test system: PC-3 prostate
RPMI-8226 leukemia = test system: RPMI-8226 leukemia

Row | Structure (SMILES) | TGI (A498 renal) [µM] | TGI (BT-549 breast) [µM] | TGI (COLO 205 colon) [µM] | TGI (HCT-15 colon) [µM] | TGI (HOP-62 NSCLC) [µM] | TGI (HOP-92 NSCLC) [µM] | TGI (HS 578T breast) [µM] | TGI (MDA-MB-231 breast) [µM] | TGI (NCI-H23 lung) [µM] | TGI (NCI/ADR-RES ovarian) [µM] | TGI (PC-3 prostate) [µM] | TGI (RPMI-8226 leukemia) [µM]
1 | COc1ccc2c(c1)-c1c(c3ccccc3n1CCN1CCCCC1)CC2 | > 100 | > 71 | 29.9 | 27.7 | > 63.1 | 54.4 | > 65.7 | 31.1 | 38.8 | 34.4 | > 87.7 | 36.3
2 | CC(=O)NNc1nc(C)c(C(/C=C/c2ccccc2O)=N/NC(=O)c2ccncc2)s1 | > 100 | > 100 | > 100 | > 100 | > 100 | > 100 | > 100 | > 100 | > 100 | > 100 | > 100 | > 100
3 | Cc1ccc(-c2cnc(NC3OC(COC(=O)c4ccccc4)C(OC(=O)c4ccccc4)C(OC(=O)c4ccccc4)C3OC(=O)c3ccccc3)s2)cc1 (centres undefined) |  | > 100 | > 100 | > 100 | > 100 | > 100 | > 100 | > 100 | > 100 | > 100 | > 100 | > 100
4 | CC(C)[Si](OCC/C=C/C1CCC(=O)C1C(O)C1CCCCC1)(C(C)C)C(C)C (centres undefined) | 33.9 | 34.1 | 35.5 | 30.6 | 31.3 | 27.7 | 36.5 | 36.3 | 29 | 27.6 | 31.5 | 32.8
5 | Cc1ccc2nc(CN3CCCCC3)cc(=O)n2c1 |  | > 100 | > 100 | > 100 | > 100 | > 100 | > 100 | > 100 | > 100 | > 100 | > 100 | > 100
6 | CCCOc1ccc(/C=C/C2=[N+](CCO)CCO2)cc1 | > 100 | > 100 | > 100 | > 100 | > 100 | > 100 | > 100 | > 100 | > 100 | > 100 | > 100 | > 100
7 | COC(=O)C(Cc1ccccc1)C(=O)NC(CNC(=O)OCc1ccccc1)C(=O)OCc1ccccc1 (centres undefined) | > 81.4 | > 100 | 37.7 | > 100 | > 100 | > 72.3 | > 100 | 50.3 | > 100 | > 100 | > 100 | 50.2
8 | Cn1c(=S)[nH]c2c(Cl)cc(Cl)cc2c1=O |  | > 100 | > 100 | > 100 | > 100 | > 100 | > 100 | > 100 | > 100 | > 100 | > 100 | 
9 | CC1=CC[C@@]2(C)[C@@H]([C@@H]1C)[C@H]1CC[C@@H]3[C@@]4(C)CC[C@H](O)C(C)(C)[C@@H]4CC[C@@]3(C)[C@]1(C)C[C@@H]2O | > 39.8 | > 64.3 | 32.1 | > 71.6 | 38.6 | 53 | > 74 | 20.2 | > 55.1 | 61.7 | 40.6 | > 100
